Among the data in PubChem BioAssay (NCI) are TGI values, retold here.

Experiment in all cases: inhibition of tumour cell growth, NCI panel, 48 h
Assay [1] relates to SF-539 CNS.
Assay [2] has as its system NCI-H460 lung.
The subject of assay [3] is DU-145 prostate.
The test system of assay [4] is SNB-75 CNS.
In assay [5] the test system is T-47D breast.
The subject of assay [6] is A549 NSCLC.
Assay [7] deals with MDA-MB-231 breast.
Assay [8] deals with UO-31 renal.
Assay [9] concerns 786-0 renal.
Assay [10] has as its system NCI/ADR-RES ovarian.
In assay [11] the test system is COLO 205 colon.
Assay [12] relates to MOLT-4 leukemia.
Assay [13] has as its system OVCAR-8 ovarian.
In assay [14] the test system is HCT-15 colon.
Assay [15] relates to HT29 colon.
Assay [16] relates to KM12 colon.
In assay [17] the test system is SK-OV-3 ovarian.
Assay [18] relates to K-562 leukemia.

Each structure is given as a SMILES string.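 Method: 48-hour compound exposure of cells in 96-well plates, five concentrations, linear interpolation of endpoints. TGI: concentration producing complete growth inhibition.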 Some results are limits rather than exact numbers.

As to `COc1ccc(-c2c(C(C)=O)c(C)n(C3OC(COC(C)=O)C(OC(C)=O)C(OC(C)=O)C3OC(C)=O)c(=S)c2C#N)cc1` (configuration not stated), the TGI in assay [1], in assay [2], in [3], in [4], in assay [5] and in assay [6] was over 100 µM throughout. For the same molecule, the TGI in [7] is over 100 µM; in assay [8], 5.01 µM; in assay [9] it was over 100 µM; in assay [10] it was over 100 µM; in assay [11], over 100 µM; in assay [12], over 100 µM. In addition, the TGI in assay [13], in assay [14], in [15], in assay [16], in assay [17] and in [18] was over 100 µM throughout.

For the molecule `CC1(C)OC[C@@H]([C@H](C=O)OCc2ccccc2)O1`, the TGI in assay [3], in assay [4], in assay [6], in assay [7], in assay [8] and in [9] was over 100 µM each time. Moreover, the TGI in assay [10], in [11], in assay [12], in [13], in [14] and in [15] was over 100 µM throughout. The TGI in assay [16], in [17] and in assay [18] was over 100 µM each time.

Consider `Cn1c(=O)oc2cc(C(=O)CN3CCN(Cc4ccc5c(c4)OCO5)CC3)c(Cl)cc21`, for which the TGI in assay [1], in [2], in assay [3], in assay [4], in [5] and in [7] was over 100 µM in each case. Further, the TGI in assay [8], in [9], in [10], in assay [11], in [12] and in assay [14] was over 100 µM throughout. Also, the TGI in assay [17] and in [18] was over 100 µM throughout.

For `CCN(CC)CCC1CCCCN1CC(=O)N1c2ccccc2NC(=O)CC1C` (configuration not stated), the TGI in assay [1] was over 100 µM; in [2] it was over 100 µM; in assay [3] it was over 100 µM; in [4], 11.8 µM; in [5], over 100 µM; in assay [6], over 100 µM. The TGI in assay [7], in [8], in assay [9], in assay [11], in assay [12] and in assay [13] was over 100 µM throughout. Moreover, the TGI in [14], in assay [15], in assay [16], in assay [17] and in assay [18] was over 100 µM throughout.

As to `N#Cc1nc(/C=C/c2cccs2)oc1N`, the TGI in [3] was over 100 µM; in [4], over 100 µM; in assay [6], over 100 µM; in [7] it was over 100 µM; in assay [8] it was 63.6 µM; in assay [9] it was over 100 µM. In addition, the TGI in assay [12], in assay [13], in assay [14], in [15], in assay [16] and in assay [17] was over 100 µM each time. In addition, the TGI in assay [18] was over 100 µM.

`CC(C)C1=CC23CCC4C(C)(C(=O)O)CCCC4(C)C2CC1C1C(=O)N(c2ccc(N4C(=O)C5C6CC7C8(C)CCCC(C)(C(=O)O)C8CCC7(C=C6C(C)C)C5C4=O)cc2)C(=O)C13` (configuration not stated): the TGI in [1] was 22.4 µM; in assay [3], 16.6 µM; in [5], 26.8 µM; in assay [6] it was 43.3 µM; in assay [7], 21.5 µM; in assay [8], 34 µM. Further, the TGI in [9] was over 100 µM; in assay [11], 10.8 µM; in assay [12] it was 22 µM; in assay [13], 16.5 µM; in assay [14], 27.2 µM; in [15], 5.22 µM. The TGI was 15.2 µM in assay [16] and over 100 µM in [18].

With `CC1(C)CC(=O)c2c(nc3c(ccc4ccccc43)c2-c2ccc(NC(=O)CCCCCCCCC(=O)Nc3ccc(-c4c5c(nc6c4ccc4ccccc46)CC(C)(C)CC5=O)cc3)cc2)C1`, the TGI in assay [1], in assay [2], in assay [3], in assay [4], in assay [5] and in assay [6] was over 100 µM throughout. In addition, the TGI in assay [7], in [8], in assay [9], in assay [10], in [11] and in [12] was over 100 µM throughout. Also, the TGI in assay [13], in assay [15], in [16], in assay [17] and in assay [18] was over 100 µM each time.

Turning to `Cc1ccc(NCCO)cc1`, the TGI in assay [1], in assay [2], in [4], in [6], in assay [8] and in assay [9] was over 100 µM in each case. Also, the TGI in assay [11], in assay [12], in assay [13], in assay [14], in assay [15] and in [16] was over 100 µM throughout. In addition, the TGI in assay [17] and in [18] was over 100 µM throughout.
